The data set can be described thus: recombinant UMI read abundance after kanamycin selection (control-corrected) (log10(CPM+1)); higher = more efficient recombination; extreme values may be limits of the assay; sequences stand for … in AGTGCAGAGAAAATCGGCCAGTTTTCTCTGCCTGCAGTCCGCATGCCGTGGGACCCCTTGGGTTCTAACCTGTTGCCTAGATTTATGCAGCGGACTGCCTTTCTCCCAAAGTGATAAACCGG…AGGTTGGTTTCACT; site = the 11-nt donor. The gist of the method: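 Sequencing read counts were converted to CPM, averaged over two replicates and scaled by control-derived factors. Results are given as log10(CPM+1). The reads covered the donor–target junction of recombinant UMIs from a pooled Escherichia coli screen of donor and donor-binding-loop pairs for the IS621 bridge recombinase.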
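Note: IS621 bridge recombinase in Escherichia coli cells against a fixed T5 target plasmid.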

With “GTGCATGCATGGACCGGTTTTCCCGGTAATCCGTATTTGGT (site ATGCATGCTAC)”, the “recombinant UMI read abundance (log10)” value worked out at 0.986. In the case of “GTGCATGCATGGACCGGTTTTCCCGGTAATCCGTATTTGGT (site CTGCATGCTAC)”, the “recombinant UMI read abundance (log10)” value turned out to be 0.457. With “GTGCATGCATGGACCGGTTTTCCCGGTAATCCGTATTTGGT (site GAGCATGCTAC)” the figure was 0.0372; with “GTGCATGCATGGACCGGTTTTCCCGGTAATCCGTATTTGGT (site GCGCATGCTAC)”, 0.271; with “GTGCATGCATGGACCGGTTTTCCCGGTAATCCGTATTTGGT (site GGGCATGCTAC)”, 0.00487. On to “GTGCATGCATGGACCGGTTTTCCCGGTAATCCGTATTTGGT (site GTACATGCTAC)”, for which the “recombinant UMI read abundance (log10)” value came to 1.47. Under “GTGCATGCATGGACCGGTTTTCCCGGTAATCCGTATTTGGT (site GTCCATGCTAC)” stands 0.00812.

With “GTGCATGCATGGACCGGTTTTCCCGGTAATCCGTATTTGGT (site GTGAATGCTAC)”, the “recombinant UMI read abundance (log10)” value turned out to be 0.

As to “GTGCATGCATGGACCGGTTTTCCCGGTAATCCGTATTTGGT (site GTGCAAGCTAC)”, the “recombinant UMI read abundance (log10)” value came to 0.00542. Under “GTGCATGCATGGACCGGTTTTCCCGGTAATCCGTATTTGGT (site GTGCACGCTAC)” stands 0.586; under “GTGCATGCATGGACCGGTTTTCCCGGTAATCCGTATTTGGT (site GTGCAGGCTAC)”, 0.384. For the sequence “GTGCATGCATGGACCGGTTTTCCCGGTAATCCGTATTTGGT (site GTGCATACTAC)”, the “recombinant UMI read abundance (log10)” value was found to be 1.69. Turning to “GTGCATGCATGGACCGGTTTTCCCGGTAATCCGTATTTGGT (site GTGCATCCTAC)”, the “recombinant UMI read abundance (log10)” value is 0.318.

As to “GTGCATGCATGGACCGGTTTTCCCGGTAATCCGTATTTGGT (site GTGCATGCTAA)”, the “recombinant UMI read abundance (log10)” value was found to be 0.0107.

In the case of “GTGCATGCATGGACCGGTTTTCCCGGTAATCCGTATTTGGT (site GTGCATGCTAC)”, the “recombinant UMI read abundance (log10)” value worked out at 0.978. “GTGCATGCATGGACCGGTTTTCCCGGTAATCCGTATTTGGT (site GTGCATGCTAG)”: the “recombinant UMI read abundance (log10)” value amounted to 0.442. In the case of “GTGCATGCATGGACCGGTTTTCCCGGTAATCCGTATTTGGT (site GTGCATGCTAT)”, the “recombinant UMI read abundance (log10)” value came to 1.47. “GTGCATGCATGGACCGGTTTTCCCGGTAATCCGTATTTGGT (site GTGCATGCTCC)”: the “recombinant UMI read abundance (log10)” value was 0.0111. On to “GTGCATGCATGGACCGGTTTTCCCGGTAATCCGTATTTGGT (site GTGCATGCTGC)”, for which the “recombinant UMI read abundance (log10)” value stood at 0.451. For “GTGCATGCATGGACCGGTTTTCCCGGTAATCCGTATTTGGT (site GTGCATGCTTC)”, the “recombinant UMI read abundance (log10)” value stood at 0.0184. Consider “GTGCATGCATGGACCGGTTTTCCCGGTAATCCGTATTTGGT (site GTGCATTCTAC)”, for which the “recombinant UMI read abundance (log10)” value came to 0. On to “GTGCATGCATGGACCGGTTTTCCCGGTAATCCGTATTTGGT (site GTGCCTGCTAC)”, for which the “recombinant UMI read abundance (log10)” value was found to be 1.15. As for “GTGCATGCATGGACCGGTTTTCCCGGTAATCCGTATTTGGT (site GTGCGTGCTAC)”, the “recombinant UMI read abundance (log10)” value worked out at 0.276. On to “GTGCATGCATGGACCGGTTTTCCCGGTAATCCGTATTTGGT (site GTGCTTGCTAC)”, for which the “recombinant UMI read abundance (log10)” value is 0.00578. As to “GTGCATGCATGGACCGGTTTTCCCGGTAATCCGTATTTGGT (site GTGGATGCTAC)”, the “recombinant UMI read abundance (log10)” value turned out to be 0.00465. “GTGCATGCATGGACCGGTTTTCCCGGTAATCCGTATTTGGT (site GTGTATGCTAC)”: the “recombinant UMI read abundance (log10)” value was 0.469.

Consider “GTGCATGCATGGACCGGTTTTCCCGGTAATCCGTATTTGGT (site GTTCATGCTAC)”, for which the “recombinant UMI read abundance (log10)” value turned out to be 0.448. Under “GTGCATGCATGGACCGGTTTTCCCGGTAATCCGTATTTGGT (site TTGCATGCTAC)” stands 0.412; under “GTGCGATCATGGACCGGTTTTCCCGGTAATCCGTATTTGAC (site GTGCGATCTGT)”, 1.92. Turning to “GTGCGGGCATGGACCGGTTTTCCCGGTAATCCGTATTTGGT (site GTGCGGGCTAC)”, the “recombinant UMI read abundance (log10)” value amounted to 0.486. Consider “GTGCTACCATGGACCGGTTTTCCCGGTAATCCGTATTTGCT (site ATGCTACCTAG)”, for which the “recombinant UMI read abundance (log10)” value was determined as 0. In the case of “GTGCTACCATGGACCGGTTTTCCCGGTAATCCGTATTTGCT (site CTGCTACCTAG)”, the “recombinant UMI read abundance (log10)” value was found to be 0.

For “GTGCTACCATGGACCGGTTTTCCCGGTAATCCGTATTTGCT (site GTGCTACCTAG)”, the “recombinant UMI read abundance (log10)” value was determined as 0.0199. As for “GTGCTACCATGGACCGGTTTTCCCGGTAATCCGTATTTGCT (site TTGCTACCTAG)”, the “recombinant UMI read abundance (log10)” value was 0. With “GTGCTCTCATGGACCGGTTTTCCCGGTAATCCGTATTTGTG (site GTGCTCTCTCA)”, the “recombinant UMI read abundance (log10)” value was 1.28. Turning to “GTGCTGCCATGGACCGGTTTTCCCGGTAATCCGTATTTGTG (site GTGCTGCCTCA)”, the “recombinant UMI read abundance (log10)” value turned out to be 0.251.

As to “GTGCTGGCATGGACCGGTTTTCCCGGTAATCCGTATTTGGT (site GTGCTGGCTAC)”, the “recombinant UMI read abundance (log10)” value turned out to be 0.476.

Consider “GTGCTTGCATGGACCGGTTTTCCCGGTAATCCGTATTTGGT (site GTGCATGCTAC)”, for which the “recombinant UMI read abundance (log10)” value came out at 0.0165. On to “GTGCTTGCATGGACCGGTTTTCCCGGTAATCCGTATTTGGT (site GTGCCTGCTAC)”, for which the “recombinant UMI read abundance (log10)” value is 0.269. Regarding “GTGCTTGCATGGACCGGTTTTCCCGGTAATCCGTATTTGGT (site GTGCGTGCTAC)”, the “recombinant UMI read abundance (log10)” value came out at 0.0221. “GTGCTTGCATGGACCGGTTTTCCCGGTAATCCGTATTTGGT (site GTGCTTGCTAC)”: the “recombinant UMI read abundance (log10)” value came out at 1.07. On to “GTGGAAACATGGACCGGTTTTCCCGGTAATCCGTATTTGCA (site ATGGAAACTTG)”, for which the “recombinant UMI read abundance (log10)” value was 1.42. As to “GTGGAAACATGGACCGGTTTTCCCGGTAATCCGTATTTGCA (site CTGGAAACTTG)”, the “recombinant UMI read abundance (log10)” value was determined as 1.56. Take “GTGGAAACATGGACCGGTTTTCCCGGTAATCCGTATTTGCA (site GTGGAAACTTG)”: the “recombinant UMI read abundance (log10)” value was 2.37. As for “GTGGAAACATGGACCGGTTTTCCCGGTAATCCGTATTTGCA (site TTGGAAACTTG)”, the “recombinant UMI read abundance (log10)” value was determined as 2.14. With “GTGGAAGCATGGACCGGTTTTCCCGGTAATCCGTATTTGTG (site GTGGAAGCTCA)” the figure was 2.35.

With “GTGGAAGCATGGACCGGTTTTCCCGGTAATCCGTATTTGTG (site GTGGACGCTCA)”, the “recombinant UMI read abundance (log10)” value was found to be 0.582.

In the case of “GTGGAAGCATGGACCGGTTTTCCCGGTAATCCGTATTTGTG (site GTGGAGGCTCA)”, the “recombinant UMI read abundance (log10)” value is 1.53. For the sequence “GTGGAAGCATGGACCGGTTTTCCCGGTAATCCGTATTTGTG (site GTGGATGCTCA)”, the “recombinant UMI read abundance (log10)” value turned out to be 0.605. Under “GTGGAGCCATGGACCGGTTTTCCCGGTAATCCGTATTTGTT (site GTGGAGCCTAA)” stands 0.012. Regarding “GTGGAGGCATGGACCGGTTTTCCCGGTAATCCGTATTTGTT (site GTGGAGGCTAA)”, the “recombinant UMI read abundance (log10)” value worked out at 1.58. Under “GTGGAGGCATGGACCGGTTTTCCCGGTAATCCGTATTTGTT (site GTGGAGGCTCA)” stands 0.524; under “GTGGAGGCATGGACCGGTTTTCCCGGTAATCCGTATTTGTT (site GTGGAGGCTGA)”, 2.66; under “GTGGAGGCATGGACCGGTTTTCCCGGTAATCCGTATTTGTT (site GTGGAGGCTTA)”, 0.938. With “GTGGATGCATGGACCGGTTTTCCCGGTAATCCGTATTTGGT (site GTGAATGCTAC)” the figure was 2.1; with “GTGGATGCATGGACCGGTTTTCCCGGTAATCCGTATTTGGT (site GTGCATGCTAC)”, 0.00775. With “GTGGATGCATGGACCGGTTTTCCCGGTAATCCGTATTTGGT (site GTGGATGCTAC)”, the “recombinant UMI read abundance (log10)” value came out at 2.2. For the sequence “GTGGATGCATGGACCGGTTTTCCCGGTAATCCGTATTTGGT (site GTGTATGCTAC)”, the “recombinant UMI read abundance (log10)” value amounted to 1.03. For the sequence “GTGGCGCCATGGACCGGTTTTCCCGGTAATCCGTATTTGTA (site GTGGCGCCTTA)”, the “recombinant UMI read abundance (log10)” value stood at 0.00916.

Regarding “GTGGCTCCATGGACCGGTTTTCCCGGTAATCCGTATTTGTT (site GTGGCTCCTAA)”, the “recombinant UMI read abundance (log10)” value turned out to be 0.00981. With “GTGGGTACATGGACCGGTTTTCCCGGTAATCCGTATTTGAC (site GTAGGTACTGT)” the figure was 2.16; with “GTGGGTACATGGACCGGTTTTCCCGGTAATCCGTATTTGAC (site GTCGGTACTGT)”, 0; with “GTGGGTACATGGACCGGTTTTCCCGGTAATCCGTATTTGAC (site GTGGGTACTGT)”, 2.91.

For “GTGGGTACATGGACCGGTTTTCCCGGTAATCCGTATTTGAC (site GTTGGTACTGT)”, the “recombinant UMI read abundance (log10)” value was found to be 2.72. As to “GTGGGTACATGGACCGGTTTTCCCGGTAATCCGTATTTGTT (site GTGGGTACTAA)”, the “recombinant UMI read abundance (log10)” value is 1.15. For the sequence “GTGGTCGCATGGACCGGTTTTCCCGGTAATCCGTATTTGGC (site GTGGTCGCTGC)”, the “recombinant UMI read abundance (log10)” value worked out at 2.91. Turning to “GTGGTGGCATGGACCGGTTTTCCCGGTAATCCGTATTTGTG (site GTGGAGGCTCA)”, the “recombinant UMI read abundance (log10)” value came out at 0.789. With “GTGGTGGCATGGACCGGTTTTCCCGGTAATCCGTATTTGTG (site GTGGCGGCTCA)”, the “recombinant UMI read abundance (log10)” value was found to be 0.0357.

Source of the values: the supplement of paper PMC11208160.
